Source: patent US8263567B2, “Treatment of hyperproliferative conditions of body surfaces” (Valderm APS, priority 2001, dated 2012)

Legend:
DNA Synthesis = conditions: grade and speed (rapid/slow); cited from earlier work
RNA Synthesis = conditions: grade and speed (rapid/slow); cited from earlier work
[1] = cited from earlier work
psoriasis vulgaris = experiment: Clinical trial, topical therapy of psoriasis vulgaris (Examples 11-16); type: in vivo, human
Description: A patient having dermal manifestations of psoriasis vulgaris was selected for therapy using the invention. Valrubicin was prepared as a solution (ref ex, 5) at a concentration of 2% (weight/weight) and was applied to the affected skin once daily. The patient was monitored for improvement in their manifestations of psoriasis. […] A patient having dermal manifestations of psoriasis vulgaris was selected for therapy using the invention. Valrubicin was prepared as a solution (ref ex. 8) at a concentration of 0.5% (weight/weight) and was applied to the affected skin once daily. The patient was monitored for improvement in their manifestations of psoriasis. […] A patient having dermal manifestations of psoriasis vulgaris was selected for therapy using the invention. Valrubicin was prepared as a gel (ref ex. 6) at a concentration of 1% (weight/weight) and was applied to the affected skin once daily. The patient was monitored for improvement in their manifestations of psoriasis. […] A patient having dermal manifestations of psoriasis vulgaris was selected for therapy using the invention. Valrubicin was prepared as a solution (ref. ex 5) at a concentration of 2.0% (weight/weight) and was applied to the affected skin twice daily. The patient was monitored for improvement in their manifestations of psoriasis. […] A patient having dermal manifestations of psoriasis vulgaris was selected for therapy using the invention. Valrubicin was prepared as a solution (ref. ex 5) at a concentration of 2.0 (weight/weight) and was applied to the affected skin twice a week. The patient was monitored for improvement in their manifestations of psoriasis. […] A patient having dermal manifestations of psoriasis vulgaris was selected for therapy using the invention. Valrubicin was prepared as a solution (ref. ex 5) at a concentration of 2.0% (weight/weight) and was applied to the affected skin once a week. The patient was monitored for improvement in their manifestations of psoriasis.

[2] = 40 mg/ml intravesical instillation of two hours, 6 times once a week; cited from earlier work
[3] = compared to other anthracyclines; cited from earlier work
normal dermal epithelium = conditions: histopathological animal experiments; cited from earlier work
[4] = concentration similar to that used in treatment of bladder cancer; cited from earlier work
[5] = in vivo; cited from earlier work
[6] = paravenous injection; cited from earlier work

SMILES	DNA Synthesis inhibition (DNA Synthesis)	RNA Synthesis inhibition (RNA Synthesis)	In vivo elimination [1]	In vivo metabolism [1]	Skin lesions of psoriasis (psoriasis vulgaris; gel (ex. 6) 1% w/w, once daily)	Skin lesions of psoriasis (psoriasis vulgaris; solution (ex. 5) 2.0% w/w, once a week)	Skin lesions of psoriasis (psoriasis vulgaris; solution (ex. 5) 2% w/w, once daily)	Skin lesions of psoriasis (psoriasis vulgaris; solution (ex. 5) 2.0% w/w, twice daily)	Skin lesions of psoriasis (psoriasis vulgaris; solution (ex. 5) 2.0 (weight/weight), twice a week)	Skin lesions of psoriasis (psoriasis vulgaris; solution (ex. 8) 0.5% w/w, once daily)	Depth into the epithelium of the bladder at which an effective concentration is found [2]	Systemic uptake [2]	Lipophilicity [3]	Effect on normal dermal epithelium (normal dermal epithelium)	Irritation of skin and eyes [4]	Cardiotoxicity and haematological toxicity versus other anthracyclines [5]	Local tissue toxicity [6]
COc1cccc2c1C(=O)c1c(O)c3c(c(O)c1C2=O)C[C@@](O)(C(=O)CO)C[C@@H]3O[C@H]1C[C@H](N)[C@H](O)[C@H](C)O1 [Doxorubicin]	+++ (slow)	+ (slow)	Slow	Minimal	–	–	–	–	–	–	–	–	–	–	–	–	–
CCCCC(=O)OCC(=O)[C@]1(O)Cc2c(O)c3c(c(O)c2[C@@H](O[C@H]2C[C@H](NC(=O)C(F)(F)F)[C@H](O)[C@H](C)O2)C1)C(=O)c1c(OC)cccc1C3=O [Valrubicin, N-trifluoroacetyladriamycin-14-valerate]	+++ (rapid)	+++ (rapid)	rapid	Extensive	skin lesions had subsided	skin lesions had subsided	skin lesions had subsided	skin lesions had subsided	skin lesions had subsided	skin lesions had subsided	1800 μm	does not result in systemic uptake	very lipophilic	does not affect normal dermal epithelium	mild to no irritation	less cardiotoxic and haematologically toxic	–
COc1cccc2c1C(=O)c1c(O)c3c(c(O)c1C2=O)C[C@@](O)(C(=O)CO)C[C@@H]3O[C@H]1C[C@H](N)[C@@H](O)[C@H](C)O1 [epirubicin]	–	–	–	–	–	–	–	–	–	–	–	–	–	–	–	–	severe necrosis
